“And” between values parts separate entries of the source, which are not always exact repeats. Identical values can stand only once.
Legend:
[1] = Screening of NSAID and vehicle combinations: penetration through cattle skin in vitro (Table 13)
Procedure: Hair was removed using an electric clipper and the subcutaneous fat and musculature carefully trimmed away before the skin was cut into circular sections (approximately 2 cm diameter) using a metal wad punch, and placed in airtight ziplock bags, stored at −20° C. within 5 hr of slaughter.
The skin samples were defrosted immediately prior to use and mounted on Franz diffusion cells. […] A glass cover slip was applied to each donor chamber to prevent evaporation of the donor solution. Samples (200 μL) were collected at regular intervals from the receptor chambers via the sampling port and immediately replenished with equal volumes of fresh receptor solution. At the completion of each study, the diffusions cells were dismantled and the skin discs were rinsed and stored.

[2] = Solubility / precipitation of NSAIDs in the vehicles tested; conditions: vehicles screened
[3] = 10% Flunixin, vehicle KET65 (Cromollient-SCE-LQ-(MH), 100% Di-PPG2-Myreth-10-Adipate), sample time 6 hrs
[4] = 10% Flunixin, vehicle KET93: Isopronanol 50% IPN, 1-Ethyl-2-Pryrrolidone 45% EP, Menthol 50 ng/mL, Buffer/EVAP None, sample time 0.5 hrs
[5] = 10% Flunixin, vehicle KET93: Isopronanol 50% IPN, 1-Ethyl-2-Pryrrolidone 45% EP, Menthol 50 ng/mL, Buffer/EVAP None, sample time 2 hrs
[6] = 10% Flunixin, vehicle KET93: Isopronanol 50% IPN, 1-Ethyl-2-Pryrrolidone 45% EP, Menthol 50 ng/mL, Buffer/EVAP None, sample time 4 hrs
[7] = 10% Flunixin, vehicle KET93: Isopronanol 50% IPN, 1-Ethyl-2-Pryrrolidone 45% EP, Menthol 50 ng/mL, Buffer/EVAP None, sample time 6 hrs
[8] = 10% Flunixin, vehicle KET95: Isopronanol 50% IPN, 1-Ethyl-2-Pryrrolidone 45% EP, Menthol 50 ng/mL, Buffer/EVAP None, sample time 0.2 hrs
[9] = 10% Flunixin, vehicle KET95: Isopronanol 50% IPN, 1-Ethyl-2-Pryrrolidone 45% EP, Menthol 50 ng/mL, Buffer/EVAP None, sample time 0.5 hrs
[10] = 10% Flunixin, vehicle KET95: Isopronanol 50% IPN, 1-Ethyl-2-Pryrrolidone 45% EP, Menthol 50 ng/mL, Buffer/EVAP None, sample time 2 hrs
[11] = 10% Flunixin, vehicle KET95: Isopronanol 50% IPN, 1-Ethyl-2-Pryrrolidone 45% EP, Menthol 50 ng/mL, Buffer/EVAP None, sample time 4 hrs
[12] = 10% Flunixin, vehicle KET96: Isopronanol 50% IPN, Propylene glycol 45% PPG, Eucalyptus oil […] 1,8-cineole, Buffer/EVAP None, sample time not printed (sample KET1430, replicate 1)
[13] = Flunixin 10% in vehicle KET46: Ethanol 70% EthOH, Propylene glycol 30% PPG, terpene None, 0.1M citrate, sample time 6 hrs
[14] = Flunixin 10% in vehicle KET46: Ethanol 70% EthOH, Propylene glycol 30% PPG, terpene None, 0.1M citrate, sample time 8 hrs

Cc1c(Nc2ncccc2C(=O)O)cccc1C(F)(F)F [flunixin, flunixin meglumine]
Concentration ([1]; 10% Flunixin, vehicle KET65 (Cromollient-SCE-LQ-(MH), 100% Di-PPG2-Myreth-10-Adipate), sample time 0.5 hrs): 0 ng/mL
Concentration ([1]; 10% Flunixin, vehicle KET65 (Cromollient-SCE-LQ-(MH), 100% Di-PPG2-Myreth-10-Adipate), sample time 2 hrs): 0 ng/mL
analysis conc ([1]; 10% Flunixin, vehicle KET65 (Cromollient-SCE-LQ-(MH), 100% Di-PPG2-Myreth-10-Adipate), sample time 4 hrs): 0.006 and 0.005
Concentration [1, 3]: 18 ng/mL and 21 ng/mL and 15 ng/mL
analysis conc [1, 3]: 0.006 and 0.007 and 0.005
Concentration [1, 4]: 96 ng/mL
analysis conc [1, 4]: 0.032
Concentration [1, 5]: 102 ng/mL
analysis conc [1, 5]: 0.034
Concentration [1, 6]: 543 ng/mL
analysis conc [1, 6]: 0.181
Concentration [1, 7]: 579 ng/mL
analysis conc [1, 7]: 0.193
Concentration ([1]; 10% Flunixin, vehicle KET94: Isopronanol 50% IPN, Propylene glycol 45% PPG, Eucalyptus oil […] 1,8-cineole, Buffer/EVAP None, sample time 2 hrs): 135 ng/mL
Concentration ([1]; 10% Flunixin, vehicle KET94: Isopronanol 50% IPN, Propylene glycol 45% PPG, Eucalyptus oil […] 1,8-cineole, Buffer/EVAP None, sample time 2 hrs, listed as Flunixin): 123 ng/mL
Concentration [1, 8]: 114 ng/mL
analysis conc [1, 8]: 0.038
Concentration [1, 9]: 159 ng/mL and 237 ng/mL
analysis conc [1, 9]: 0.053 and 0.079
Concentration [1, 10]: 165 ng/mL and 246 ng/mL and 132 ng/mL
analysis conc [1, 10]: 0.055 and 0.082 and 0.044
Concentration [1, 11]: 186 ng/mL and 285 ng/mL and 147 ng/mL
analysis conc [1, 11]: 0.062 and 0.095 and 0.049
Concentration [1, 12]: 60 ng/mL
analysis conc [1, 12]: 0.02
Concentration ([1]; Flunixin 10% in vehicle KET46: Ethanol 70% EthOH, Propylene glycol 30% PPG, terpene None, 0.1M citrate, sample time 2 hrs): 0 ng/mL
Concentration ([1]; Flunixin 10% in vehicle KET46: Ethanol 70% EthOH, Propylene glycol 30% PPG, terpene None, 0.1M citrate, sample time 4 hrs): 0 ng/mL
Concentration [1, 13]: 36 ng/mL
analysis conc [1, 13]: 0.012
Concentration [1, 14]: 36 ng/mL
analysis conc [1, 14]: 0.012
analysis conc ([1]; Flunixin 10% in vehicle KET47: Ethanol 70% EthOH, Propylene glycol 30% PPG, Menthol 50 mg/mL, 0.1M citrate, sample time 0.5 hrs): 0.009
Concentration ([1]; Flunixin 50%, vehicle KET38: Ethanol 50% EthOH, no co-solvent, Menthol 50 mg/mL, sample time 0.5 hrs, replicates 1-3): 0 ng/mL
Concentration ([1]; Flunixin 50%, vehicle KET38: Ethanol 50% EthOH, no co-solvent, Menthol 50 mg/mL, sample time 2 hrs, replicates 1-3): 0 ng/mL
Concentration ([1]; Flunixin 50%, vehicle KET38: Ethanol 50% EthOH, no co-solvent, Menthol 50 mg/mL, sample time 4 hrs, replicates 1-3): 0 ng/mL
Concentration ([1]; Flunixin 50%, vehicle KET38: Ethanol 50% EthOH, no co-solvent, Menthol 50 mg/mL, sample time 6 hrs, replicates 1-3): 0 ng/mL
Concentration ([1]; Flunixin 50%, vehicle KET38: Ethanol 50% EthOH, no co-solvent, Menthol 50 mg/mL, sample time 8 hrs, replicates 1-3): 0 ng/mL
solubility in vehicles [2]: most soluble in the majority of vehicles examined
